# Test results as given in US12043599B2, “Herbicidal compounds” (SYNGENTA PARTICIPATIONS AG, priority 2018, dated 2024).
# How the values were obtained:
# Format in all cases: in vivo
# Conditions in all cases: 250 g/h, evaluated after 13 days
# [1] = tested on: Alopecurus myosuroides (ALOMY); test: Pre-emergence herbicidal glasshouse test, percentage damage
# In short: (§1)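 Spray: 250 g/h, aqueous acetone/water 50:50 + 0.5% Tween 20; pre-em 1 d after sowing, post-em at 8 d. Glasshouse 24/16 °C, 14 h light, 65% RH, watered twice daily. Read % damage at 13 d, scored 1–5 (5=80-100%).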
# [2] = tested on: Avena fatua (AVEFA); test: as above
# In short: as §1
# [3] = tested on: Echinochloa crus-galli (ECHCG); test: as above
# In short: as §1
# [4] = tested on: Lolium perenne (LOLPE); test: as above
# In short: as §1
# [5] = tested on: Setaria faberi (SETFA); test: as above
# In short: as §1
# [6] = tested on: Setaria faberi (SETFA); test: Post-emergence herbicidal glasshouse test, percentage damage
# In short: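 Percentage damage was scored 13 days after treatment on a five-point scale (1=0-19% to 5=80-100%). Treatments were post-emergence sprays on 8-day-old wheat, barley and SETFA plants in a glasshouse (24/16 °C day/night, 14 h light, 65% humidity), using acetone/water 50:50 with 0.5% Tween 20 at the stated rates. Wheat additionally received cloquintocet-mexyl safener at 50 g/ha.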
# [7] = tested on: Alopecurus myosuroides (ALOMY); test: as above
# In short: as §1
# [8] = tested on: Avena fatua (AVEFA); test: as above
# In short: as §1
# [9] = tested on: Echinochloa crus-galli (ECHCG); test: as above
# In short: as §1
# [10] = tested on: Lolium perenne (LOLPE); test: as above
# In short: as §1
SMILES,ALOMY PRE percentage damage (five point scale) [1],AVEFA PRE percentage damage (five point scale) [2],ECHCG PRE percentage damage (five point scale) [3],LOLPE PRE percentage damage (five point scale) [4],SETFA PRE percentage damage (five point scale) [5],SETFA POST percentage damage (five point scale) [6],ALOMY POST percentage damage (five point scale) [7],AVEFA POST percentage damage (five point scale) [8],ECHCG POST percentage damage (five point scale) [9],LOLPE POST percentage damage (five point scale) [10]
CC#Cc1cc(C)c(C2=C(OC(=O)OC)CC3(CCN(C(=O)COC)CC3)CC2=O)c(C)c1 [Compound P19],5 (5=80-100%),5 (5=80-100%),5 (5=80-100%),5 (5=80-100%),5 (5=80-100%),5 (5=80-100%),5 (5=80-100%),5 (5=80-100%),5 (5=80-100%),5 (5=80-100%)
CC#Cc1cc(C)c(C2=C(OC(=O)OC)CC3(CCN(C(=O)NC4CC4)CC3)CC2=O)c(C)c1 [Compound P15],5 (5=80-100%),5 (5=80-100%),5 (5=80-100%),5 (5=80-100%),5 (5=80-100%),5 (5=80-100%),5 (5=80-100%),5 (5=80-100%),5 (5=80-100%),5 (5=80-100%)
CC#Cc1cc(C)c(C2C(=O)CC3(CCN(C(=O)COCC)CC3)CC2=O)c(C)c1 [Compound A148],5 (5=80-100%),5 (5=80-100%),5 (5=80-100%),5 (5=80-100%),5 (5=80-100%),5 (5=80-100%),5 (5=80-100%),5 (5=80-100%),5 (5=80-100%),5 (5=80-100%)
CC#Cc1cc(C)c(C2C(=O)CC3(CCN(C(=O)NC(=O)c4ncc(C(F)(F)F)cc4Cl)CC3)CC2=O)c(C)c1 [Compound A158],2 (2=20-39%),2 (2=20-39%),5 (5=80-100%),3 (3=40-59%),5 (5=80-100%),5 (5=80-100%),3 (3=40-59%),5 (5=80-100%),5 (5=80-100%),5 (5=80-100%)
CC#Cc1cc(C)c(C2C(=O)CC3(CCN(C(=O)CCc4ccn(C)n4)CC3)CC2=O)c(C)c1 [Compound A183],4 (4=60-79%),4 (4=60-79%),5 (5=80-100%),5 (5=80-100%),5 (5=80-100%),5 (5=80-100%),5 (5=80-100%),5 (5=80-100%),5 (5=80-100%),5 (5=80-100%)
CC#Cc1cc(C)c(C2C(=O)CC3(CCN(S(=O)(=O)C4CC4)CC3)CC2=O)c(C)c1 [Compound A82],5 (5=80-100%),5 (5=80-100%),5 (5=80-100%),5 (5=80-100%),5 (5=80-100%),5 (5=80-100%),5 (5=80-100%),5 (5=80-100%),5 (5=80-100%),5 (5=80-100%)
CC#Cc1cc(C)c(C2=C(OC(=O)OC)CC3(CCN(C(=O)COCCOC)CC3)CC2=O)c(C)c1 [Compound P50],3 (3=40-59%),2 (2=20-39%),5 (5=80-100%),4 (4=60-79%),5 (5=80-100%),5 (5=80-100%),4 (4=60-79%),5 (5=80-100%),5 (5=80-100%),5 (5=80-100%)
CC#Cc1cc(C)c(C2C(=O)CC3(CCN(S(=O)(=O)c4ccccn4)CC3)CC2=O)c(C)c1 [Compound A70],5 (5=80-100%),5 (5=80-100%),5 (5=80-100%),5 (5=80-100%),5 (5=80-100%),5 (5=80-100%),5 (5=80-100%),5 (5=80-100%),5 (5=80-100%),5 (5=80-100%)
CC#Cc1cc(C)c(C2C(=O)CC3(CCN(C(=O)N(C)OC)CC3)CC2=O)c(C)c1 [Compound A9],5 (5=80-100%),5 (5=80-100%),5 (5=80-100%),5 (5=80-100%),5 (5=80-100%),5 (5=80-100%),5 (5=80-100%),5 (5=80-100%),5 (5=80-100%),5 (5=80-100%)
CC#Cc1cc(C)c(C2C(=O)CC3(CCN(C(=O)c4ccncn4)CC3)CC2=O)c(C)c1 [Compound A18],5 (5=80-100%),5 (5=80-100%),5 (5=80-100%),5 (5=80-100%),5 (5=80-100%),5 (5=80-100%),5 (5=80-100%),5 (5=80-100%),5 (5=80-100%),5 (5=80-100%)
CC#Cc1cc(C)c(C2=C(OC(=O)OC)CC3(CCN(C(=O)NC(=O)C(C)(C)C)CC3)CC2=O)c(C)c1 [Compound P10],5 (5=80-100%),5 (5=80-100%),5 (5=80-100%),5 (5=80-100%),5 (5=80-100%),5 (5=80-100%),5 (5=80-100%),5 (5=80-100%),5 (5=80-100%),5 (5=80-100%)
